Biological target: T1, CFTR (F508del/MF-HBE cells) (Homo sapiens, UniProt P13569, DEL508-508)
T1 construct: human bronchial epithelial (HBE) cells derived from CF subjects heterozygous for F508del and a minimal function CFTR mutation; endogenous in cells; host or cells: primary human bronchial epithelial cells from CF subjects (F508del/MF genotype)
Assay: Ussing chamber assay of CFTR-mediated short-circuit currents (identification of potentiator compounds)
Format: cell-based
Conditions: CFTR-mediated ISC in F508del/MF-HBE cells; incubated 18-24 hours at 37° C. with 10 μM (14S)-8-[3-(2-{dispiro[2.0.2.1]heptan-7-yl}ethoxy)-1H-pyrazol-1-yl]-...-2,2,4-trione, 20% human serum
Procedure, shortened: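 F508del/minimal-function HBE cultures grown at air-liquid interface were incubated for 18–24 h at 37 °C with potentiator plus 10 μM corrector, in 20% human serum, and compounds stayed present during recording. Transepithelial ISC was recorded at 0 mV and 37 °C with 30 μM apical amiloride. CFTR current was taken as the peak response to 20 μM forskolin minus the steady state after a 20 μM inhibitor cocktail.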

T1 sequence (P13569 with tags, fused parts or gaps DEL508-508): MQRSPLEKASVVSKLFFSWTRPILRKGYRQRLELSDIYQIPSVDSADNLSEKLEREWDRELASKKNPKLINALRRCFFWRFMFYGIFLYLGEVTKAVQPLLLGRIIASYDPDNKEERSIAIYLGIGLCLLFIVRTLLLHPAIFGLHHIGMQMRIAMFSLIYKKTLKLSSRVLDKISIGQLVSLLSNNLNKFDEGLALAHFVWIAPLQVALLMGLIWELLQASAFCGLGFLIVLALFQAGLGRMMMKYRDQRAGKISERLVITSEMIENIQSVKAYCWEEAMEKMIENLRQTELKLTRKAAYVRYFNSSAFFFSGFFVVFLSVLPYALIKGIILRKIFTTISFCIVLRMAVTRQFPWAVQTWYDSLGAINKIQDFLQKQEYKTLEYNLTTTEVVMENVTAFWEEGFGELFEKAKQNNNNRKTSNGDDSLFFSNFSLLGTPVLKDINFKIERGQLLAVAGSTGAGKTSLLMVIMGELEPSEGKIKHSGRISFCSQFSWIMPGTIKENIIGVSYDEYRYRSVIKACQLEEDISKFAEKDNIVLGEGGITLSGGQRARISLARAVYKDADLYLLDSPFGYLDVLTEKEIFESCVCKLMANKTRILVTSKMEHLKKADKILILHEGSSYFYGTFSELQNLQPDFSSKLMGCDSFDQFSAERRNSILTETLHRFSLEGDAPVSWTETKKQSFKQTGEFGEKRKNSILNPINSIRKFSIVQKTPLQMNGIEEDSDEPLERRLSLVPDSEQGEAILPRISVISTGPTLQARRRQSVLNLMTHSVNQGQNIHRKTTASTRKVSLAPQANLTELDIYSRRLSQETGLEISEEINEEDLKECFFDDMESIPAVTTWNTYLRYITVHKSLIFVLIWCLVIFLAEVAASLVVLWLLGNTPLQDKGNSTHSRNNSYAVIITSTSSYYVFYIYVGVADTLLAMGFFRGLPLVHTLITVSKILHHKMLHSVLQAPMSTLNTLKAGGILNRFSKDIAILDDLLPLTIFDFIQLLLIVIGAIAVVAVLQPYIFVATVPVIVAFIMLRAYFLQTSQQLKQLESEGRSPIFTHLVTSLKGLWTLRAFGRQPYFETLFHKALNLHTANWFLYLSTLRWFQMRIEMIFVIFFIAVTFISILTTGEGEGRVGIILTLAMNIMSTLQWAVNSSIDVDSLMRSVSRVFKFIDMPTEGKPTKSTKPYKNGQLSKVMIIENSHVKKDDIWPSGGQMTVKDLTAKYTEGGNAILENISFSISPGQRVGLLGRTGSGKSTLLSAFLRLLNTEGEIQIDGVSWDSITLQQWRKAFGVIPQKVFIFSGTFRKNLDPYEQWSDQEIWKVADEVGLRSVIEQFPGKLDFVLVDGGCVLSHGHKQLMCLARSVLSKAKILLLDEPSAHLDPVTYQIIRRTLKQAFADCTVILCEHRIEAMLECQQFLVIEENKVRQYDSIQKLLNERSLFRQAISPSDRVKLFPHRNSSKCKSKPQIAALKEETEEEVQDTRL

Structure (SMILES) | EC50 [nM]
Nc1cc(C(F)(F)F)c2nc1-c1nnc(o1)C(O)(C(F)(F)F)CCCCCC1CCS(=O)(=O)N21 (single isomer, unassigned) [Compound 110, 20-amino-6-hydroxy-6,18-bis(trifluoromethyl)-22-oxa-15λ6-thia-3,4,16,21-tetraazatetracyclo[15.3.1.12,5.012,16]docosa-1(21),2,4,17,19-pentaene-15,15-dione] | < 500
Nc1cc(C(F)(F)F)c2nc1-c1nnc(o1)C(O)(C(F)(F)F)CCCCCC1CCS(=O)(=O)N21 (single isomer, unassigned) [Compound 111, 20-amino-6-hydroxy-6,18-bis(trifluoromethyl)-22-oxa-15λ6-thia-3,4,16,21-tetraazatetracyclo[15.3.1.12,5.012,16]docosa-1(21),2,4,17,19-pentaene-15,15-dione] | > 1000
Nc1cc(C(F)(F)F)c2nc1-c1nnc(o1)C(O)(C(F)(F)F)CCCCCC1CCS(=O)(=O)N21 (single isomer, unassigned) [Compound 112, 20-amino-6-hydroxy-6,18-bis(trifluoromethyl)-22-oxa-15λ6-thia-3,4,16,21-tetraazatetracyclo[15.3.1.12,5.012,16]docosa-1(21),2,4,17,19-pentaene-15,15-dione] | 500 to 1000
Nc1cc(C(F)(F)F)c2nc1-c1nnc(o1)C(O)(C(F)(F)F)CCCCCC1CCS(=O)(=O)N21 (single isomer, unassigned) [Compound 113, 20-amino-6-hydroxy-6,18-bis(trifluoromethyl)-22-oxa-15λ6-thia-3,4,16,21-tetraazatetracyclo[15.3.1.12,5.012,16]docosa-1(21),2,4,17,19-pentaene-15,15-dione] | > 1000
COc1cc(N)c2nc1N1CCC[C@H]1CCCCCC(O)(C(F)(F)F)C1=NN=C2O1 (single isomer, unassigned) [Compound 114] | < 500
COc1cc(N)c2nc1N1CCC[C@H]1CCCCCC(O)(C(F)(F)F)C1=NN=C2O1 (single isomer, unassigned) [Compound 115] | > 1000
Nc1cc(C(F)(F)F)c2nc1-c1nnc(o1)C(O)(C(F)(F)F)CCCCC[C@@H]1COCC(=O)N21 (single isomer, unassigned) [Compound 116] | < 500
Nc1cc(C(F)(F)F)c2nc1-c1nnc(o1)C(O)(C(F)(F)F)CCCCC[C@@H]1COCC(=O)N21 (single isomer, unassigned) [Compound 117] | > 1000
Nc1cc(C(F)(F)F)c2nc1-c1nnc(o1)C(O)(C(F)(F)F)CCCCCC(c1ccccc1)N2 (single isomer, unassigned) [Compound 119, 17-amino-12-phenyl-6,15-bis(trifluoromethyl)-19-oxa-3,4,13,18-tetrazatricyclo[12.3.1.12,5]nonadeca-1(18),2,4,14,16-pentaen-6-ol] | < 500
Nc1cc(C(F)(F)F)c2nc1-c1nnc(o1)C(O)(C(F)(F)F)CCCCCC(c1ccccc1)N2 (single isomer, unassigned) [Compound 120, 17-amino-12-phenyl-6,15-bis(trifluoromethyl)-19-oxa-3,4,13,18-tetrazatricyclo[12.3.1.12,5]nonadeca-1(18),2,4,14,16-pentaen-6-ol] | < 500
Nc1cc(C(F)(F)F)c2nc1-c1nnc(o1)C(O)(C(F)(F)F)CCCCCC(c1ccccc1)N2 (single isomer, unassigned) [Compound 122, 17-amino-12-phenyl-6,15-bis(trifluoromethyl)-19-oxa-3,4,13,18-tetrazatricyclo[12.3.1.12,5]nonadeca-1(18),2,4,14,16-pentaen-6-ol] | > 1000
Nc1cc(C(F)(F)F)c2nc1-c1nnc(o1)C(O)(C(F)(F)F)c1ccc(F)c(c1)CCC[C@@H]1CCCN21 (single isomer, unassigned) [Compound 130] | > 1000
Nc1cc(C(F)(F)F)c2nc1-c1nnc(o1)C(O)(C(F)(F)F)c1ccc(F)c(c1)CCC[C@@H]1CCCN21 (single isomer, unassigned) [Compound 131] | < 500
Nc1cc(S(=O)(=O)c2ccccc2)c2nc1-c1nnc(o1)C(O)(C(F)(F)F)CCCCC[C@@H]1CCCN21 (single isomer, unassigned) [Compound 140] | > 1000
